The record followed here is patent publication US20100081713A1, “COMPOSITIONS AND METHODS FOR TREATING VIRAL INFECTIONS” (priority 2008, published 2010).

Each structure is given as a SMILES string. “Also recorded” adds a separate entry of the source.

This assay has as its system influenza A/PR/8/34. Further details: species or system C57/BL6 mice. The note with it: mouse, in vivo.

In the case of `CN[C@H]1CC[C@@H](c2ccc(Cl)c(Cl)c2)c2ccccc21` [Sertraline], the “survival rate, result in words” value is “dose dependant increase in survival rate; also recorded: improves survival rate”.
